This is an account of results in patent US20120136057A1, “HYDROXY FATTY ACID COMPOUNDS AND USES THEREOF FOR DISEASE TREATMENT AND DIAGNOSIS” (PHENOMENOME DISCOVERIES INC., priority 2009, published 2012).

Assay type in all cases: cell-based, mouse
The test system of assay [1] is TNFα. Put plainly: TNFα protein by ELISA in LPS-stimulated RAW macrophage cells. The conditions noted are these: RAW293 cells, 0.5 mM before LPS stimulation. The procedure: ELISA for mouse TNF alpha: Raw cells were treated as described in real time PCR. Conditioned medium was collected. Cells was briefly washed with ice cold PBS and lysed with lysis buffer (Jerry's recipe); Protein in the cell lysate was quantified using the Bio-Rad Protein Assay (Bio-Rad, Hercules, Calif.). 50 ul of conditioned medium or 100 ug of cell lysate per well was used to determine the amount of TNF alpha as per manufactory's instruction (Cat. No. KMC3011, Invitrogen).
(§1) The RAW293 mouse macrophage cell model system is commonly used to assess anti-inflammatory activity of compounds. The cells are treated with lipopolysaccharide which induces a massive inflammatory response, of which compounds can be tested for their ability to protect against. RAW293 cells were pretreated with hPULCFA-enriched extract followed by treatment with LPS for 24 hours after which mRNA transcript and protein levels of pro-inflammatory markers including the cytokines tumor necrosis factor alpha (TNFα) and interleukin-1 beta (IL-1β), iNOS as described above, cyclooxygenase 2 (COX2, the enzyme responsible for the production of pro-inflammatory eicosanoids from arachidonic acid) were assessed.
(In general: In an ELISA, binding on a coated surface is turned into a signal by an enzyme label.)

Assay [2] concerns IL-1β. Put plainly: IL-1β protein by ELISA in LPS-stimulated RAW macrophage cells. The following applies: RAW293 cells, 0.5 mM before LPS stimulation. The procedure: ELISA for mouse IL-1 beta: Raw cells were treated as described in real time PCR. 50 ul of conditioned medium or 100 ug of cell lysate was used to determine the amount of IL-1 beta as per manufactory's instruction (Cat. No. MLB00B, Quantikine)
as §1

The subject of assay [3] is TNFα mRNA transcript. As to the kind of experiment: TNFα mRNA by quantitative real-time PCR in LPS-stimulated RAW macrophage cells. The following applies: RAW264.7 cells, 500 uM (0.5 mM) before LPS stimulation. The procedure:
Quantitative Real time PCR: RAW264.7 cells were seeded at 1×10^6/well in […] plate the day before the treatment. The following day, the cells were treated with different concentration of hPUCLFA(D046) or 1% FA/DMSO (DMSO) as vehicle control for 4 hours; each treatment was in duplicate; then stimulated with LPS at 1 μg/ml (cat. No. L4391, Sigma) for 20 hours. Total RNA was isolated from cell pellets using Trizol (Cat. No. 15596-018, Invitrogen) as per manufacturer's instruction. The RNA pellets were resuspended in 50 μL of DEPC treated water and stored at −80° C. RNA concentration and purity was determined by spectrophotometry at 260 and 280 nm. […]
The RAW293 mouse macrophage cell model system is commonly used to assess anti-inflammatory activity of compounds. […] RAW293 cells were pretreated with hPULCFA-enriched extract followed by treatment with LPS for 24 hours after which mRNA transcript and protein levels of pro-inflammatory markers including the cytokines tumor necrosis factor alpha (TNFα) and interleukin-1 beta (IL-1β), iNOS as described above, cyclooxygenase 2 (COX2, the enzyme responsible for the production of pro-inflammatory eicosanoids from arachidonic acid) were assessed.
A general note: In qPCR the cycle at which signal appears reflects the starting amount.

Take `CCCC(O)C/C=C\C(O)/C=C\C/C=C\C/C=C\C/C=C\CCCCCCCCC(=O)O` (stereo not drawn) [Compound D046-124]: the “TNFα protein level in conditioned media” value in assay [1] is recorded as “prevented the induction”. Further, the “levels of IL-1β in conditioned media” value in assay [2] is given as “completely blocked”. The “induction of TNFα transcripts” value in assay [3] is “prevented the induction”.
